Where two headings read alike, the source gives them in different places.
Legend:
WA09 hES cells [1] = test: Phase 2 targeted biomarker assay, ornithine/cystine ratio, 9-point dose response; details: for Teratogenicity Potential (μM) O/C Ratio: human, 72 h
Description: Undifferentiated hES Cell Line Maintenance (Phases 1 and 2). WA09 hES cells were obtained from the WiCell Research Institute (Madison, Wis.) and were maintained in feeder free conditions using mTeSR1 media (StemCell Technologies, Inc., Vancouver, BC, Canada) on hESC-qualified Matrigel (BD Biosciences, San Jose, Calif.) coated 6-well plates. To maintain the undifferentiated stem cell population, differentiated colonies were removed daily through aspiration and media was replaced. Additionally, the hES cells were only used in experiments up to passage 40 and were karyotyped approximately every 10 passages to minimize and monitor the potential for genetic instability. hES cells were passaged at 90-95% confluency (approximately every 7 days) using Versene (Life Technologies, Grand Island, N.Y.). Cell cultures were maintained at 37° C. under 5% CO2.
96-well hES Cell Plating (Phases 1 and 2). All experimental treatments were carried out in 96-well plates. To minimize plating variability and increase reproducibility, hES cells were plated as a single cell suspension and maintained in an undifferentiated state during compound exposure. Prior to plating in the 96-well plates, hES cells were removed from a 6-well plate using TrypLE (Life Technologies). The cells were washed with DMEM/F12 (Life Technologies) and resuspended in mTeSR1 containing 10 μM Y27632 Rho-associated kinase (ROCK) inhibitor (Merck KGaA/Calbiochem, Darmstadt, Germany). The ROCK inhibitor is added to the plating media to increase plating efficiency by decreasing dissociation-induced apoptosis. The inner 60 wells of hESC-qualified Matrigel coated 96-well plates were seeded at a density of 100,000 cells per well. The outer wells of the plate contained an equal volume media to minimize differences in humidity across the plate. Compound exposure began 24 hours after plating.
(§1) Phase 2 hES Cell Compound Exposure. […] The standard compound exposure levels used for most compounds were nine, 3-fold dilutions ranging from 0.04 μM-300 μM (FIG. 1B). […] The stock solution was diluted 1:1000 in mTeSR1 media and subsequent dilutions were performed in mTeSR1 containing 0.1% DMSO such that the final concentration of DMSO was 0.1% in all treatments. hES cells were treated for 72 hours and spent media from the last 24-hour treatment period was collected and added to acetonitrile containing ^13C6 labeled arginine (Cambridge Isotope Laboratories, Andover, Md.) as described under Phase 1. Spent media samples were stored at −80° C. until prepared for LC-HRMS analysis. Cell viability was assessed using the CellTiter-Fluor Cell Viability Assay. A quality control step was included with criteria that the CV of the measured viability RFU of the DMSO control cells could not exceed 10% for a plate to undergo LC-HRMS analysis. A dose response curve was fit to the reference treatment (0.1% DMSO treated control cells) normalized data (Viability RFUTrt X/Viability RFUDMSO) using a four-parameter log-logistic model with the R package “drc” (Ritz and Streibig, 2005, J Statistical Software; 12:1-22).
Sample Preparation (Phases 1 and 2). High molecular weight constituents (>10 KDa) of the spent media samples were removed using a Millipore Multiscreen Ultracel-10 filter plate (EMD Millipore, Billerica, Mass.). Prior to sample filtration, the filter plate was washed with 0.1% NaOH to remove a known contaminant polymer. The plate was then rinsed twice with HPLC-grade water to remove residual polymers and NaOH. Spent media samples were added to the washed filter plate. In Phase 1, samples were spiked with ^13C6 labeled arginine. Samples were centrifuged at 2,000×g at 4° C. for 200 minutes. The filtrate was collected and concentrated overnight in a Savant High Capacity Speedvac Plus Concentrator.

WA09 hES cells [2] = system: WA09 hES cells
Procedure: Phase I hES Cell Compound Exposure. hES cells were treated with a test compound at a single concentration equivalent to the compound's published therapeutic Cmax. […] This was done to ensure that enough cells were present at the time of sample collection to provide a signal for LC-HRMS analysis. For test compound exposure, all compound stock solutions, with the exception of valproic acid, were made with DMSO (Sigma-Aldrich). […] Each 96-well plate included media controls with and without test compound, 0.1% DMSO solvent control cells and cells exposed to a single concentration of eight different test compounds (FIG. 1A). Media controls were included on each plate to assess the impact of test compound on the sample matrix. hES cells were exposed to the test compound for 72 hours, with media and test compound replacement every 24 hours. Cells were monitored throughout the treatment period to ensure that no differentiation was occurring. After 72 hours of treatment, the spent media from the final 24-hour treatment period was collected and added to acetonitrile (Sigma-Aldrich, final acetonitrile concentration 40%), to halt metabolic processes and precipitate proteins from solution. Individual wells from each 96-well plate were collected and analyzed as separate samples. These samples were then stored at −80° C. until prepared for LC-HRMS analysis. Cell viability was assessed using the CellTiter-Fluor Cell Viability Assay as per the manufacturer's instructions (Promega, Madison, Wis.). Quality control parameters were set such that if the coefficient of variation (CV) for the viability relative fluorescent units (RFU) of the 6 cellular samples in a treatment exceeded 10% and no outliers were identified using the Grubb's test (see the worldwide web at graphpad.com/quickcalcs/Grubbs1.cfm), analysis was halted for that compound and the cell culture experiment was repeated. If outliers were present, the outlier sample was removed from analysis. If the CV for the DMSO control cell samples on a plate were outside of the quality control parameters, the entire plate was repeated. hES cell exposure to each of the 23 compounds was replicated a total of nine times.
as §1
Phase 2 Prediction of Developmental Toxicity Potential. […] FIG. 2 illustrates how the assay is applied in this situation. A test compound is considered to be teratogenic at the exposure level where the o/c ratio exceeds the teratogenicity threshold (red box, FIG. 2).

[3] = cited from earlier work
Rodent = details: cited from earlier work; for Rodent in vivo test results: Embryotoxic: embryotoxic effect in the absence of teratogenic effects and maternal toxicity; for Rodent in vivo test results: Teratogenic: structural malformations in the absence of maternal toxicity; for Rodent developmental toxicity testing, result in words: relation to maternal toxicity where stated
Rabbit = details: cited from earlier work
[4] = summarized from TERIS and Briggs et al. 2011, cited from earlier work; for Preclinical in vivo developmental effects: application set compounds; for Preclinical in vivo and known human developmental effects: test set compounds
Humans = details: cited from earlier work
[5] = application set, peak plasma concentration in humans
[6] = test set, therapeutic peak plasma in vivo concentration, human

| SMILES | Targeted Biomarker Assay prediction (WA09 hES cells [1]) | Teratogenicity Potential (μM) O/C Ratio (WA09 hES cells [1]) [µM] | Teratogenicity Potential (μM) Cell Viability (WA09 hES cells [2]; human, 72 h) [µM] | Cmax [3, 5] [µM] | Rodent prediction (Rodent; application set) | Rabbit prediction (Rabbit; application set) | Preclinical in vivo developmental effects [4] | also measured |
| --- | --- | --- | --- | --- | --- | --- | --- | --- |
| Nc1nc(NC2CC2)c2ncn([C@H]3C=C[C@@H](CO)C3)c2n1 [Abacavir] | NON | 95.1 | 94.1 | 14.9 | TER | NON | Skeletal, embryo toxicity^c | Rodent in vivo test results: Embryotoxic (Rodent; application set): +; Rodent in vivo test results: Teratogenic (Rodent; application set): + |
| Nc1nc2c(ncn2COCCO)c(=O)[nH]1 [Acycloguanosine] | NON | – | >300 | – | – | – | – | Viability Prediction (WA09 hES cells [2]; test set, teratogenicity potential scored against therapeutic Cmax): NON; Cmax [3, 6]: 3 µM; Humans (known human developmental toxicity) (Humans; training and test set): NON |
| CC(C)(C)C(=O)OCOP(=O)(COCCn1cnc2c(N)ncnc21)OCOC(=O)C(C)(C)C [Adefovir dipivoxil] | TER | – | – | 0.03 | – | – | – | Teratogenicity Potential (μM) Cell Viability (WA09 hES cells [2]; application set, interpolated concentration where cell viability dose response curve crosses teratogenicity threshold 0.88, 72 hours): 0.02 µM; Rodent developmental toxicity testing, result in words (Rodent): only embryotoxic at exposure levels that also caused maternal toxicity |
| CC(C)CN(C[C@@H](O)[C@H](Cc1ccccc1)NC(=O)O[C@H]1CCOC1)S(=O)(=O)c1ccc(N)cc1 [Amprenavir] | NON | 236.9 | 259.5 | 15.1 | TER | TER | Skeletal, embryo toxicity^c | Rodent in vivo test results: Embryotoxic (Rodent; application set): +; Rodent in vivo test results: Teratogenic (Rodent; application set): + |
| C[C@H]1[C@H](OC(=O)CCC(=O)O)O[C@@H]2O[C@@]3(C)CC[C@H]4[C@H](C)CC[C@@H]1[C@@]24OO3 [Artesunate] | TER | – | 0.58 | 73.9 | – | – | – | – |
| COc1ccccc1Oc1c(NS(=O)(=O)c2ccc(C(C)(C)C)cc2)nc(-c2ncccn2)nc1OCCO [Bosentan] | NON | 44.9 | 221.9 | – | – | – | – | O/C Ratio Prediction (WA09 hES cells [1]): NON; Viability Prediction (WA09 hES cells [2]): NON; Cmax [3, 6]: 2 µM; Humans (known human developmental toxicity) (Humans; training and test set): TER; Rodent prediction (Rodent; training and test set): TER; Rabbit prediction (Rabbit; training and test set): NON; Preclinical in vivo and known human developmental effects [4]: Craniofacial, |
| Cn1c(=O)c2c(ncn2C)n(C)c1=O [Caffeine] | – | – | >300 | – | – | – | – | Cmax ([3]; training set, therapeutic peak plasma in vivo concentration, human): 9.3 µM; Humans (known human developmental toxicity) (Humans; in vivo): NON |
| Nc1ccn(C[C@@H](CO)OCP(=O)(O)O)c(=O)n1 [Cidofovir] | TER | 0.3 | 1.9 | 41.2 | NON | NON | None | Rodent developmental toxicity testing, result in words (Rodent): only embryotoxic at exposure levels that also caused maternal toxicity |
| CCN(CC)C(=O)/C(C#N)=C/c1cc(O)c(O)c([N+](=O)[O-])c1 [Entacapone] | TER | 6.7 | 127 | 3.9 | TER | NON | Eye defects | Rodent in vivo test results: Teratogenic (Rodent; application set): + |
| CO[C@H]1C[C@@H]2CC[C@@H](C)[C@@](O)(O2)C(=O)C(=O)N2CCCC[C@H]2C(=O)O[C@H]([C@H](C)C[C@@H]2CC[C@@H](OCCO)[C@H](OC)C2)CC(=O)[C@H](C)/C=C(\C)[C@@H](O)[C@@H](OC)C(=O)[C@H](C)C[C@H](C)/C=C/C=C/C=C/1C [Everolimus] | TER | <0.04 | 5.2 | – | – | – | – | Classification by o/c ratio in the targeted biomarker assay (WA09 hES cells [1]): classified as a teratogen; O/C Ratio Prediction (WA09 hES cells [1]): TER; Viability Prediction (WA09 hES cells [2]): NON; Cmax [3, 6]: 0.02 µM; Humans (known human developmental toxicity) (Humans; training and test set): TER; Rodent prediction (Rodent; training and test set): TER; Rabbit prediction (Rabbit; training and test set): NON; Preclinical in vivo and known human developmental effects [4]: Skeletal, embryo toxicity^c |
| CCC(=O)NCC[C@@H]1CCc2ccc3c(c21)CCO3 [Ramelteon] | NON | 34 | >300 | 0.02 | NON | NON | None | Rodent developmental toxicity testing, result in words (Rodent): only embryotoxic at exposure levels that also caused maternal toxicity |

Source: patent US10209240B2, “Predicting human developmental toxicity of pharmaceuticals using human stem-like cells and metabolomic ratios” (STEMINA BIOMARKER DISCOVERY, INC., priority 2012, dated 2019)
